From publication PMC8658928, “Isolation of N-Ethyl-2-pyrrolidinone-Substituted Flavanols from White Tea Using Centrifugal Countercurrent Chromatography Off-Line ESI-MS Profiling and Semi-Preparative Liquid Chromatography” (Molecules, 2021)

molecular target: α-glucosidase; assay: pNPG hydrolysis assay, absorbance at […] nm, pH […]; format: biochemical

SMILES	IC50
CCN1C(=O)CC[C@@H]1c1c(O)cc(O)c2c1O[C@H](c1cc(O)c(O)c(O)c1)[C@H](OC(=O)c1cc(O)c(O)c(O)c1)C2 [R-EGCG-cThea]	70.3 µM
O=C(O[C@@H]1Cc2c(O)cc(O)cc2O[C@@H]1c1cc(O)c(O)c(O)c1)c1cc(O)c(O)c(O)c1 [EGCG]	129 µM
CCN1C(=O)CC[C@H]1c1c(O)cc(O)c2c1O[C@H](c1cc(O)c(O)c(O)c1)[C@H](OC(=O)c1cc(O)c(O)c(O)c1)C2 [S-EGCG-cThea]	162 µM
